From patent US6461997B1, “Triazole sulfones having herbicidal activity” (Monsanto Technology LLC, priority 1999, dated 2002)

The compounds below were run on SORHA (johnsongrass (seedling)) (assay: Pre-emergence herbicidal activity, warm season). Conditions: GR80 = lowest tested rate (300, 100, 30, 10 g/ha) with 80% or greater inhibition; approx. 14 days after treating; 30/21° C.
Assay type: in vivo, Sorghum halepense
Summary of the method: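 Seeds sown in sterilised fertilised topsoil received surface-applied compound in 50:50 acetone/water, typically at 300, 100, 30 and 10 g/ha, then greenhouse-grown at 30/21° C (warm-season species) or 18/13° C (cool-season species). Percent inhibition versus untreated plants was scored at about 14 days, giving GR80; an asterisk marks activity short of 80% at the top rate.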
In the case of `CCN(CC)C(=O)n1cnc(S(=O)(=O)C(F)(F)Br)n1` [Example 1, 3-(bromodifluoromethylsulfonyl)-1-(N,N-diethylcarbamoyl)-1,2,4-triazole], the “Pre-emergence activity (GR80) SORHA” value is reported as 30 g/ha.

Same assay, conditions: Sorghum halepense; pre-emergence application, 10 g/ha; read-out: Percent inhibition, weed SORHA
Compound `CCN(CC)C(=O)n1cnc(S(=O)(=O)C(F)(F)Br)n1` [Example 1, 3-(bromodifluoromethylsulfonyl)-1-(N,N-diethylcarbamoyl)-1,2,4-triazole] has an inhibition at 10 g/ha of 0%.

Same assay, conditions: Sorghum halepense; pre-emergence application, 30 g/ha; read-out: Percent inhibition, weed SORHA
With `CCN(CC)C(=O)n1cnc(S(=O)(=O)C(F)(F)Br)n1` [Example 1, 3-(bromodifluoromethylsulfonyl)-1-(N,N-diethylcarbamoyl)-1,2,4-triazole] the inhibition at 30 g/ha was 0%.

Same assay, conditions: Sorghum halepense; pre-emergence application, 100 g/ha; read-out: Percent inhibition, weed SORHA
`CCN(CC)C(=O)n1cnc(S(=O)(=O)C(F)(F)Br)n1` [Example 1, 3-(bromodifluoromethylsulfonyl)-1-(N,N-diethylcarbamoyl)-1,2,4-triazole] showed an inhibition at 100 g/ha of 50%.

Same assay, conditions: Sorghum halepense; pre-emergence application, 300 g/ha; read-out: Percent inhibition, weed SORHA
Work on `CCN(CC)C(=O)n1cnc(S(=O)(=O)C(F)(F)Br)n1` [Example 1, 3-(bromodifluoromethylsulfonyl)-1-(N,N-diethylcarbamoyl)-1,2,4-triazole] yielded an inhibition at 300 g/ha of 70%.

Same assay, conditions: Sorghum halepense; pre-emergence application, 900 g/ha; read-out: Percent inhibition, weed SORHA
Compound `CCN(CC)C(=O)n1cnc(S(=O)(=O)C(F)(F)Br)n1` [Example 1, 3-(bromodifluoromethylsulfonyl)-1-(N,N-diethylcarbamoyl)-1,2,4-triazole] has an inhibition at 900 g/ha of 99%.

What follows are compounds tested on ALOMY (blackgrass) (assay: Pre-emergence herbicidal activity, cool season). Conditions: GR80 = lowest tested rate (300, 100, 30, 10 g/ha) with 80% or greater inhibition; approx. 14 days after treating; 18/13° C.
Assay type: in vivo, Alopecurus myosuroides
Summary of the method: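 Pre-emergence soil-surface spray; rates 300/100/30/10 g/ha; acetone:water 50:50 diluent. Warm-season species (PANMI, DIGSA) grown at 30/21 °C, cool-season species (ALOMY, POLCO) at 18/13 °C. Inhibition scored ~14 d after treatment versus untreated controls → GR80.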
`CCN(CC)C(=O)n1cnc(S(=O)(=O)C(F)(F)Br)n1` [Example 1, 3-(bromodifluoromethylsulfonyl)-1-(N,N-diethylcarbamoyl)-1,2,4-triazole] was tested, and the “Pre-emergence activity (GR80) ALOMY” value was 300 g/ha.

Each compound was assayed on AVEFA (wild oat) (assay: Pre-plant incorporated (PPI) herbicidal activity, cool season). Conditions: Avena fatua; weed, PPI application, 30 g/ha; read-out: Percent inhibition AVEFA.
Assay type: in vivo, Avena fatua
Procedure: In another set of tests, the pre-plant incorporated (PPI) activity of compounds of this invention was evaluated on the same species as for the pre-emergence tests described above. In the PPI tests the following procedure, designed to simulate PPI application, was used.
(§1) A pre-prepared topsoil mixture (described above) was placed in a pot and compacted to a depth of 1.0 to 1.25 cm from the top of the pot. Seeds of each of several monocotyledonous and dicotyledonous annual plant species were placed on top of the soil. A sufficient quantity of soil to cover the seeds and level fill the pot was weighed into an open container. A known amount of the test compound was dissolved or suspended in an organic solvent and applied by spraying to this cover soil. The cover soil was thoroughly mixed to distribute the test compound throughout the cover soil, and was then applied as a cover layer over the seeds. Untreated soil was used as a cover layer for control pots. After treatment the plants were placed in a greenhouse where they received 0.64 cm of overhead irrigation. All subsequent watering consisted of a light overhead mist and/or subirrigation as needed for germination and growth. Tables 9 and 10 below relate to warm season plant species which were placed after pre-emergence treatment in a greenhouse with a 30/21° C. day/night temperature regime. Tables 11 and 12 below relates to cool season plant species placed after pre-emergence treatment in a greenhouse or growth chamber with an 18/13° C. day/night temperature regime. Only the compounds of Examples 1, 6, 8, 11, 13 and 15-20 were included in PPI tests.
(§2) Approximately 14 days after planting and treating, the plants were observed and herbicidal efficacy recorded as percent inhibition by comparison with untreated plants.
With `CCN(CC)C(=O)n1cnc(S(=O)(=O)C(F)(F)Br)n1` [Example 1, 3-(bromodifluoromethylsulfonyl)-1-(N,N-diethylcarbamoyl)-1,2,4-triazole] the inhibition at 30 g/ha was 0%.

Same assay, conditions: Avena fatua; weed, PPI application, 100 g/ha; read-out: Percent inhibition AVEFA
`CCN(CC)C(=O)n1cnc(S(=O)(=O)C(F)(F)Br)n1` [Example 1, 3-(bromodifluoromethylsulfonyl)-1-(N,N-diethylcarbamoyl)-1,2,4-triazole] was tested, and the inhibition at 100 g/ha was 20%.

Same assay, conditions: Avena fatua; weed, PPI application, 300 g/ha; read-out: Percent inhibition AVEFA
Compound `CCN(CC)C(=O)n1cnc(S(=O)(=O)C(F)(F)Br)n1` [Example 1, 3-(bromodifluoromethylsulfonyl)-1-(N,N-diethylcarbamoyl)-1,2,4-triazole] has an inhibition at 300 g/ha of 95%.

Same assay, conditions: Avena fatua; weed, PPI application, 900 g/ha; read-out: Percent inhibition AVEFA
`CCN(CC)C(=O)n1cnc(S(=O)(=O)C(F)(F)Br)n1` [Example 1, 3-(bromodifluoromethylsulfonyl)-1-(N,N-diethylcarbamoyl)-1,2,4-triazole] gave an inhibition at 900 g/ha of 90%.

Same assay, conditions: pre-plant incorporated; lowest tested rate with 80% or greater inhibition; about 14 days
For `CCN(CC)C(=O)n1cnc(S(=O)(=O)C(F)(F)Br)n1` [Example 1, 3-(bromodifluoromethylsulfonyl)-1-(N,N-diethylcarbamoyl)-1,2,4-triazole], the “PPI activity GR80, AVEFA” value was 300 g/ha.

These compounds were tested on LOLMG (annual ryegrass) (assay: Post-emergence herbicidal activity, cool season). Conditions: abraded plants sprayed at 300, 100, 30 and 10 g/ha; about 14 days after treatment.
Assay type: in vivo, Lolium multiflorum
Summary of the method: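 GR80 values derive from percent growth inhibition scored approximately 14 days post-spray against abraded, unsprayed controls under an 18/13 °C regime. Foliar application to sandblast-abraded plants used rates of 300, 100, 30 and 10 g/ha in 50:50 acetone/water at 3,100 l/ha.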
For `CCN(CC)C(=O)n1cnc(S(=O)(=O)C(F)(F)Br)n1` [Example 1, 3-(bromodifluoromethylsulfonyl)-1-(N,N-diethylcarbamoyl)-1,2,4-triazole], the “Post-emergence activity GR80, LOLMG” value was “[empty]”.

Each compound was assayed on soybean (GLYMX) (assay: Selectivity test, PPI, warm season crop). Conditions: Glycine max; PPI application, 10 g/ha; read-out: Percent inhibition GLYMX.
Assay type: in vivo, Glycine max
Procedure: as §1, §2
(§3) Additional pre-emergence and PPI tests were conducted by the procedures described above, on warm and cool season weed species in the presence of crop species, to assess herbicidal selectivity. Crop species included in warm season tests were corn (Zea mays, ZEAMX), rice (Oryza sativa, ORYSA) and soybean (Glycine max, GLYMX). Crop species included in cool season tests were wheat (Triticum aestivum, TRZAW), barley (Hordeunm vulgare, HORVX) and oilseed rape (Brassica napus, BRSNS).
(§4) Tables 15 and 16 relate to pre-emergence and PPI tests respectively on warm season species. Table 17 relates to pre-emergence tests on cool season species.
Work on `CCN(CC)C(=O)n1cnc(S(=O)(=O)C(F)(F)Br)n1` [Example 1, 3-(bromodifluoromethylsulfonyl)-1-(N,N-diethylcarbamoyl)-1,2,4-triazole] yielded an inhibition at 10 g/ha of 0%.

Same assay, conditions: Glycine max; PPI application, 30 g/ha; read-out: Percent inhibition GLYMX
`CCN(CC)C(=O)n1cnc(S(=O)(=O)C(F)(F)Br)n1` [Example 1, 3-(bromodifluoromethylsulfonyl)-1-(N,N-diethylcarbamoyl)-1,2,4-triazole] was tested, and the inhibition at 30 g/ha was 0%.

Same assay, conditions: Glycine max; PPI application, 100 g/ha; read-out: Percent inhibition GLYMX
In the case of `CCN(CC)C(=O)n1cnc(S(=O)(=O)C(F)(F)Br)n1` [Example 1, 3-(bromodifluoromethylsulfonyl)-1-(N,N-diethylcarbamoyl)-1,2,4-triazole], the inhibition at 100 g/ha is reported as 0%.

Same assay, conditions: Glycine max; PPI application, 300 g/ha; read-out: Percent inhibition GLYMX
In the case of `CCN(CC)C(=O)n1cnc(S(=O)(=O)C(F)(F)Br)n1` [Example 1, 3-(bromodifluoromethylsulfonyl)-1-(N,N-diethylcarbamoyl)-1,2,4-triazole], the inhibition at 300 g/ha is reported as 0%.

Same assay, conditions: Glycine max; PPI application, 900 g/ha; read-out: Percent inhibition GLYMX
For `CCN(CC)C(=O)n1cnc(S(=O)(=O)C(F)(F)Br)n1` [Example 1, 3-(bromodifluoromethylsulfonyl)-1-(N,N-diethylcarbamoyl)-1,2,4-triazole], the inhibition at 900 g/ha was 40%.

These compounds were tested on barley (HORVX) (assay: Selectivity test, PPI, cool season crop). Conditions: Hordeum vulgare, PPI application, 30 g/ha, read-out: Percent inhibition HORVX.
Assay type: in vivo, Hordeunm vulgare
Procedure: as §1, §2, §3, §4
`CCN(CC)C(=O)n1cnc(S(=O)(=O)C(F)(F)Br)n1` [Example 1, 3-(bromodifluoromethylsulfonyl)-1-(N,N-diethylcarbamoyl)-1,2,4-triazole] was tested, and the inhibition at 30 g/ha was 0%.

Same assay, conditions: Hordeum vulgare, PPI application, 100 g/ha, read-out: Percent inhibition HORVX
Work on `CCN(CC)C(=O)n1cnc(S(=O)(=O)C(F)(F)Br)n1` [Example 1, 3-(bromodifluoromethylsulfonyl)-1-(N,N-diethylcarbamoyl)-1,2,4-triazole] yielded an inhibition at 100 g/ha of 10%.

Same assay, conditions: Hordeum vulgare, PPI application, 300 g/ha, read-out: Percent inhibition HORVX
`CCN(CC)C(=O)n1cnc(S(=O)(=O)C(F)(F)Br)n1` [Example 1, 3-(bromodifluoromethylsulfonyl)-1-(N,N-diethylcarbamoyl)-1,2,4-triazole] was tested, and the inhibition at 300 g/ha was 30%.

Same assay, conditions: Hordeum vulgare, PPI application, 900 g/ha, read-out: Percent inhibition HORVX
In the case of `CCN(CC)C(=O)n1cnc(S(=O)(=O)C(F)(F)Br)n1` [Example 1, 3-(bromodifluoromethylsulfonyl)-1-(N,N-diethylcarbamoyl)-1,2,4-triazole], the inhibition at 900 g/ha is reported as 50%.
